ChEMBL document CHEMBL1140773, “Discovery of amide and heteroaryl isosteres as carbamate replacements in a series of orally active gamma-secretase inhibitors” (Bioorg Med Chem Lett, 2008)

Experiment: in vivo
Conditions: rat, plasma, po, 10 mg/kg

CC[C@@H]1CCC[C@H](C2(CC(=O)N3CCN(C(C)(C)CO)CC3)CC2)N1S(=O)(=O)c1ccc(Cl)cc1 (racemic)
AUC(0-t) at 6 h: 1620 ng·h/mL

CN(Cc1noc(CC2([C@H]3CCC[C@@H](C4CC4)N3S(=O)(=O)c3ccc(Cl)cc3)CC2)n1)C(C)(C)CO (racemic)
AUC(0-t) at 6 h: 143 ng·h/mL

CC[C@@H]1CCC[C@H](C2(Cc3nc(CN4CCCC4)no3)CC2)N1S(=O)(=O)c1ccc(Cl)cc1 (racemic)
AUC(0-t) at 6 h: 26 ng·h/mL

CC[C@@H]1CCC[C@H](C2(CC(=O)N3CC4CCC(C3)N4CCO)CC2)N1S(=O)(=O)c1ccc(Cl)cc1 (mixture of isomers)
AUC(0-t) at 6 h: 3220 ng·h/mL

CC[C@@H]1CCC[C@H](C2(CC(=O)N3CCC(N4CCCCC4)CC3)CC2)N1S(=O)(=O)c1ccc(Cl)cc1 (racemic)
AUC(0-t) at 6 h: 93 ng·h/mL

CC[C@@H]1CCC[C@H](C2(CC(=O)N3CCN4CCCC[C@H]4C3)CC2)N1S(=O)(=O)c1ccc(Cl)cc1 (racemic)
AUC(0-t) at 6 h: 419 ng·h/mL

CC[C@@H]1CCC[C@H](C2(CC(=O)N3CC4CCC(C3)N4C)CC2)N1S(=O)(=O)c1ccc(Cl)cc1 (mixture of isomers)
AUC(0-t) at 6 h: 2650 ng·h/mL

O=C(CC1([C@H]2CCC[C@@H](C3CC3)N2S(=O)(=O)c2ccc(Cl)cc2)CC1)N1CC2CCC(C1)N2CCO (mixture of isomers)
AUC(0-t) at 6 h: 5810 ng·h/mL

O=C(CC1([C@H]2CCC[C@@H](C3CC3)N2S(=O)(=O)c2ccc(Cl)cc2)CC1)N1CCN2CCCC[C@H]2C1 (racemic)
AUC(0-t) at 6 h: 673 ng·h/mL

CC[C@@H]1CCC[C@H](C2(Cc3nc(CN(C)C(C)(C)CO)no3)CC2)N1S(=O)(=O)c1ccc(Cl)cc1 (racemic)
AUC(0-t) at 6 h: 973 ng·h/mL

CC(C)(CO)N1CCN(C(=O)CC2([C@H]3CCC[C@@H](C4CC4)N3S(=O)(=O)c3ccc(Cl)cc3)CC2)CC1 (racemic)
AUC(0-t) at 6 h: 1350 ng·h/mL
